Here are results for seven compounds from patent publication US10590077B2, “TRPV4 antagonists” (GlaxoSmithKline Intellectual Property (No.2) Limited, priority 2016, dated 2020).

Read-outs that look alike come from different tables or passages of the source.

The target in this assay is human TRPV4 (Homo sapiens (Human), UniProt Q9HBA0). Briefly: FLIPR assay for hTRPV4 expressed in BHK cells. The class given is cell-based. The method, then: FLIPR Assay for hTRPV4 Expressed in BHK Cells:
TRPV4 channel activation results in an influx of divalent and monovalent cations including calcium. The resulting changes in intracellular calcium were monitored using a calcium specific fluorescent dye Fluo-4 (MDS Analytical Technologies). BHK/AC9 cells transduced with BacMam virus expressing the human TRPV4 gene at a MOI of 78 were plated in a 384 well poly-D lysine coated plate (15,000 cells/well in 50 μL culture medium containing DMEM/F12 with 15 mM HEPES, 10% FBS, 1% Penicillin-Streptomycin and 1% L-glutamine). Cells were incubated for 24 hours at 37° C. and 5% CO2. Culture medium was then aspirated using a Tecan plate-washer and replaced with 20 μL/well of dye loading buffer: HBSS, 500 μM Brilliant Black (MDS Analytical Technologies), and 2 μM Fluo-4 AM. Dye loaded plates were then incubated in the dark at room temperature for 1˜1.5 hours.

Setting [1] is: inhibition of Agonist Compound-induced calcium signal (agonist at EC80), BHK/AC9 cells expressing human TRPV4, read-out: IC50.
[2] abbreviates: average in at least one set of experimental runs, inhibition of Agonist Compound-induced calcium signal, read-out: average IC50.

Chain of human TRPV4 (Q9HBA0 whole entry): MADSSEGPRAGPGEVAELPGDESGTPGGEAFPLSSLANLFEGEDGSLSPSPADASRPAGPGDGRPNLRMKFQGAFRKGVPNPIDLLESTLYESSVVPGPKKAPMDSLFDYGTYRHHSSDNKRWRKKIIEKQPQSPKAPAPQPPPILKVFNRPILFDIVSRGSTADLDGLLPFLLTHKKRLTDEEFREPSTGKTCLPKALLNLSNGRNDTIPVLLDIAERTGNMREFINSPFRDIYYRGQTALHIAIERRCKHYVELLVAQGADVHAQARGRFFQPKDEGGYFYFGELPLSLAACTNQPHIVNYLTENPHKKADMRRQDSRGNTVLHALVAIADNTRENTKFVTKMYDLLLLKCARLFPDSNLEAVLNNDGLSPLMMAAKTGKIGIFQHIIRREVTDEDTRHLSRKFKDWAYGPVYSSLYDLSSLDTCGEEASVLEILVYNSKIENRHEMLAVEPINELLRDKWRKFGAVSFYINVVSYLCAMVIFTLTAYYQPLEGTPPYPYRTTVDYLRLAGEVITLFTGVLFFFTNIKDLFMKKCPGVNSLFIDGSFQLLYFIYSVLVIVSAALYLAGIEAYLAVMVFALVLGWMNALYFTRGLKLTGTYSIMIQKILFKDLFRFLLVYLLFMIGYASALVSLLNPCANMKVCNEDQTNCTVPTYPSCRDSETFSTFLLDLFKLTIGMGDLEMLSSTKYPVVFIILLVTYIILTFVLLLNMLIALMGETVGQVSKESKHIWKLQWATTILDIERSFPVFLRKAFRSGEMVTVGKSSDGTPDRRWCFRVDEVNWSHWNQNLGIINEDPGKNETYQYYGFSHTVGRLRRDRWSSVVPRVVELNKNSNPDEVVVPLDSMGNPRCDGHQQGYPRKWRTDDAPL

`N#Cc1ccc(C[C@H]2CN(S(=O)(=O)c3ccc(Cl)cn3)C[C@@]2(O)CO)c(OCC(F)(F)F)c1` [Example 3, 4-(((3S,4R)-1-((5-chloropyridin-2-yl)sulfonyl)-4-hydroxy-4-(hydroxymethyl)pyrrolidin-3-yl)methyl)-3-(2,2,2-trifluoroethoxy)benzonitrile]: the IC50 – broadly, the concentration at which inhibition is half-maximal – under setting [1] was 10 to 100 nM.
Still for that read-out and setting: in the case of `N#Cc1ccc(C[C@H]2CN(S(=O)(=O)c3ccc(C(F)(F)F)cc3Cl)C[C@@]2(O)CO)cc1` [Example 2, 4-(((3S,4R)-1-((2-chloro-4-(trifluoromethyl)phenyl)sulfonyl)-4-hydroxy-4-(hydroxymethyl)pyrrolidin-3-yl)methyl)benzonitrile] it was 10 to 100 nM.
For `N#Cc1ccc(S(=O)(=O)N2C[C@H](Cc3ccc(C#N)c(F)c3)[C@](O)(CO)C2)c(Cl)c1` [Example 6, 4-(((3S,4R)-1-((2-chloro-4-cyanophenyl)sulfonyl)-4-hydroxy-4-(hydroxymethyl)pyrrolidin-3-yl)methyl)-2-fluorobenzonitrile], the half-inhibitory concentration (IC50) under setting [1] lay in the range of 0.1 to 10 nM.
Consider `N#Cc1ccc(C[C@H]2CN(S(=O)(=O)c3ccc(C(F)(F)F)cc3C#N)C[C@@]2(O)CO)cc1F` [Example 5, 4-(((3S,4R)-1-((2-cyano-4-(trifluoromethyl)phenyl)sulfonyl)-4-hydroxy-4-(hydroxymethyl)pyrrolidin-3-yl)methyl)-2-fluorobenzonitrile], for which the IC50 under setting [1] lay within 0.1 to 10 nM.
Regarding `N#Cc1ccc(C[C@H]2CN(S(=O)(=O)c3ccc(Cl)cn3)C[C@@]2(O)CN)cc1F` [Example 7, 4-(((3S,4S)-4-(aminomethyl)-1-((5-chloropyridin-2-yl)sulfonyl)-4-hydroxypyrrolidin-3-yl)methyl)-2-fluorobenzonitrile], the IC50 by setting is: under setting [2], 10 nM; under setting [1], 0.1 to 10 nM.
Take `N#Cc1ccc(C[C@H]2CN(S(=O)(=O)c3ccc(Cl)cc3Cl)C[C@]2(O)CO)cc1F` [Example 4, 4-(((3S,4S)-1-((2,4-dichlorophenyl)sulfonyl)-4-hydroxy-4-(hydroxymethyl)pyrrolidin-3-yl)methyl)-2-fluorobenzonitrile]: the IC50 under setting [1] was in the range of 10 to 100 nM.
As to `N#Cc1ccc(C[C@H]2CN(S(=O)(=O)c3ccc(Cl)cc3Cl)C[C@@]2(O)CO)cc1F` [Example 1, 4-(((3S,4R)-1-((2,4-dichlorophenyl)sulfonyl)-4-hydroxy-4-(hydroxymethyl)pyrrolidin-3-yl)methyl)-2-fluorobenzonitrile], the IC50 runs as follows: under setting [2], 8 nM; under setting [1], 0.1 to 10 nM.
